Here are results for eight compounds from patent US11117930B2, “Peptide inhibitors of transcription factor aggregation” (ADRX, INC., priority 2017, dated 2021).

Read-outs that look alike come from different tables or passages of the source. Non-standard residues stand in square brackets, D forms with d. Residues, ends and D or L forms follow the SMILES beside them. No end group written: not given here. NMeI = CC[C@H](C)[C@H](NC)C(=O)O Where only a bound is given, the exact number is not on record here.

Data set [1] deals with p73 [RPILIIITLE—SEQ ID NO: 227] (Homo sapiens, UniProt O15350). In words: Thioflavin T aggregation assay, p73 amyloidogenic region. To be noted: inhibitors added in solution; FIG. 2(b). Details: dose or concentration left out as unconfirmed. Type of data set: biochemical. The text has this: (§1) FIGS. 1(a) and 1(b) show the aggregation of p63 and p73 amyloidogenic regions, respectively. The aggregation of the p63 and p73 sequences are monitored via Thioflavin T assay: an increase in Thioflavin T fluorescence is detected over time due to the formation of increasing amounts of amyloid to which the dye can specifically bind.
(§2) FIGS. 2(a) and 2(b) show the in vitro inhibition of p63 and p73 aggregation by several inhibitors. The aggregation is monitored via Thioflavin T assay. […] The baseline of no inhibitor is the line with squares.
An increase in Thioflavin T fluorescence is detected over time due to the formation of increasing amounts of amyloid to which the dye can specifically bind. […] For the Nat1 Stock Solution, Nat1 (LTIITLE (SEQ ID NO: 225), >95% Pure, TFA salt) is dissolved at 8 mM in 25 mM NaOH solution and kept at −80° C. Prior to the assay, it is diluted to 1 mM in H2O. The 2× Reaction Buffer is prepared with 200 mM Sodium Phosphate, pH6.0, 500 mM Sodium Chloride and 200 μM Thioflavin T (ThT). 100 μL of 2× reaction buffer and 80 μL of H2O are added to each well in black, clear-bottomed 96-well plate. Inhibitor peptides are dissolved in H2O to appropriate concentrations to produce 6-points dose response curves. […] ThT fluorescence is monitored at room temperature every minute for 2 hours with excitation and emission wavelengths of 440 and 485 nm, respectively. […]

In data set [2] the target is p63 [RPILIIVTLE—SEQ ID NO: 226] (Homo sapiens, UniProt Q9H3D4). Description: Thioflavin T aggregation assay, p63 amyloidogenic region. To be noted: inhibitors added in solution; FIG. 2(a). Type of data set: biochemical. Details: dose or concentration left out as unconfirmed.
From the text: as §1, §2
The peptides are tested for p63 binding and p73 binding in an in vitro Thiofiavin T aggregation assay. […] The addition of the 50 μM solutions of p63 and p73 peptides to the reaction Buffer described in Example 3, forms amyloid (FIG. 1(a) and FIG. 1(b)). An increase in Thioflavin T fluorescence is detected over time due to the formation of increasing amounts of amyloid to which the dye can specifically bind. […] For the Nat1 Stock Solution, Nat1 (LTIITLE (SEQ ID NO: 225), >95% Pure, TFA salt) is dissolved at 8 mM in 25 mM NaOH solution and kept at −80° C. Prior to the assay, it is diluted to 1 mM in H2O. […] ThT fluorescence is monitored at room temperature every minute for 2 hours with excitation and emission wavelengths of 440 and 485 nm, respectively. […]

Data set [3] addresses Nat1 (LTIITLE (SEQ ID NO: 225)) (Homo sapiens, UniProt P04637). Description: Thioflavin T aggregation assay (Nat1). Type of data set: biochemical. To be noted: ThT fluorescence, 50 μM Nat1, pH6.0, room temperature, 2 hours. As for the experimental part:
The peptides of the invention were tested in an in vitro Thiofiavin T aggregation assay [see WO2014/182961]. An increase in Thioflavin T fluorescence is detected over time due to the formation of increasing amounts of amyloid to which the dye can specifically bind. […] For the Nat1 Stock Solution, Nat (LTIITLE (SEQ ID NO: 225), >95% Pure, TFA salt) is dissolved at 8 mM in 25 mM NaOH solution and kept at −80° C. Prior to the assay, it is diluted to 1 mM in H2O. The 2× Reaction Buffer is prepared with 200 mM Sodium Phosphate, pH6.0, 500 mM Sodium Chloride and 200 μM Thioflavin T (ThT). 100 μL of 2× reaction buffer and 80 μL of H2O are added to each well in black, clear-bottomed 96-well plate. Inhibitor peptides are dissolved in H2O to appropriate concentrations to produce 6-points dose response curves. 10 μL of dissolved peptide or H2O (control) is added to each reaction well. 10 μL of 1 mM Nat1 peptide is added to each reaction well (a final concentration of 50 μM). ThT fluorescence is monitored at room temperature every minute for 2 hours with excitation and emission wavelengths of 440 and 485 nm, respectively. IC50 values are calculated using Graphpad Prism.

Another data set in a line: Stability in human serum. Type of data set: in vitro ADME. To be noted: CPP linked peptides, read-out: Stability in Human Serum (t1/2).
Another data set concerns Detroit-562. Type of data set: cell-based. To be noted: 24 h. As for the experimental part: (§3) To render the inhibitors cell permeable, the peptides are fused to either a nine-residue poly L-Arg tag or a nine-residue poly D-Arg tag, through one of several three-residue linkers, either L-RPI, D-RPI, or D-GGG. Cancer cell lines, e.g. OVCAR-3, and Detroit 562 are treated with the peptide conjugates for 24 hours by the following method. OVCAR3 and Detroit-562 cells are grown in ATCC recommended growth media. The peptides were made in a 4 mM stock. Cells are plated in 96-well flat bottom clear plates at 7000 cells/well. After 24 hours, compounds are serially diluted in one-third [starting at 33 μM] or one-half [starting at 30 μM] dilutions in PrEGM media (Lonza). Growth media was removed from the wells and compound in PrEGM was added to 100 ul final volume. 24 hours post-compound addition cell metabolism was measured by addition of 20 μl MTS solution (Promega, cell-titer 96 aqueous). Absorbance was read at 490 nm following a 2 hour incubation and data was processed in Prism Graphpad to generate EC50 values.

In a further data set the test system is OVCAR3. Type of data set: cell-based. The settings on record: 24 h. As for the experimental part:
as §3

Data set [4] is described as follows: Protein binding in human serum. Type of data set: in vitro ADME. To be noted: CPP linked peptides.

Take `N=C(N)NCCC[C@@H](N)C(=O)N[C@H](Cc1ccccc1)C(=O)N[C@H](Cc1ccc(O)cc1)C(=O)N[C@H](Cc1ccc(O)cc1)C(=O)N[C@H](Cc1c[nH]cn1)C(=O)N[C@H](CCCNC(=N)N)C(=O)N[C@H](CCCNC(=N)N)C(=O)O` [rfyyhrr] (H-[dR][dF][dY][dY][dH][dR][dR]-OH; N-terminus and C-terminus assumed): in data set [1], the “in vitro inhibition of p73 aggregation” value is “delay the aggregation onset and lower the total amount of aggregates present”. For the same compound, the “in vitro inhibition of p63 aggregation” value in data set [2] is “delay the aggregation onset and lower the total amount of aggregates present”.

As to LLIKYHR [LLIKYHR], the “in vitro inhibition of p73 aggregation” value in data set [1] was “delay the aggregation onset and lower the total amount of aggregates present”. The “in vitro inhibition of p63 aggregation” value in data set [2] is “delay the aggregation onset and lower the total amount of aggregates present”.

The term IC50 denotes the concentration that inhibits the measured activity by half. Compound `CC[C@H](C)[C@@H](C(=O)N[C@@H](CCCCN)C(=O)N[C@@H](Cc1ccc(O)cc1)C(=O)N[C@@H](Cc1c[nH]cn1)C(=O)N[C@@H](CCCNC(=N)N)C(=O)O)N(C)C(=O)[C@H](CCCNC(=N)N)NC(=O)[C@@H](N)CC(C)C` [LR(N-Me)IKYHR] (H-LR[NMeI]KYHR-OH; N-terminus and C-terminus assumed) gave an IC50 in data set [3] of 0.334 µM.

In general, EC50 refers to the concentration giving half of the maximal effect. A word on the fraction unbound: it is the share of the substance not bound to proteins or other matrix. On to PRRRRRRRRRRPILRIRYWKP, for which the half-life in the data set “Stability in human serum” worked out at 3.33 h. The concentration for a half-maximal effect (EC50) in the data set on Detroit-562 and in the data set on OVCAR3 was 5 µM each time. The same compound showed a fraction unbound in data set [4] of 0.02.

`CC[C@@H](C)[C@@H](NC(=O)[C@H]1CCCN1C(=O)[C@@H](CCCNC(=N)N)NC(=O)[C@@H](CCCNC(=N)N)NC(=O)[C@@H](CCCNC(=N)N)NC(=O)[C@@H](CCCNC(=N)N)NC(=O)[C@@H](CCCNC(=N)N)NC(=O)[C@@H](CCCNC(=N)N)NC(=O)[C@@H](CCCNC(=N)N)NC(=O)[C@@H](CCCNC(=N)N)NC(=O)[C@@H](CCCNC(=N)N)NC(=O)[C@H](N)CCCNC(=N)N)C(=O)N[C@H](Cc1c[nH]cn1)C(=O)N[C@H](CCC(N)=O)C(=O)N[C@H](CCCNC(=N)N)C(=O)N[C@H](CCC(N)=O)C(=O)N[C@H](Cc1ccc(O)cc1)C(=O)N[C@H](CCC(N)=O)C(=O)N[C@H](CCCNC(=N)N)C(=O)O` [rrrrrrrrrrpihqrqyqr] (H-[dR][dR][dR][dR][dR][dR][dR][dR][dR][dR][dP][dI][dH][dQ][dR][dQ][dY][dQ][dR]-OH; N-terminus and C-terminus assumed): the half-life in the data set “Stability in human serum” (cells given in hr) is over 24 h. The EC50 in the data set on Detroit-562 stood at 35 µM; in the data set on OVCAR3, 27 µM. The compound further showed a fraction unbound in data set [4] of 0.88.

As for Ac-IRIRRYR-NH2 [Ac-IRIRRYR-NH2], in data set [3], the IC50 was found to be 0.069 µM.

Regarding `CC[C@@H](C)[C@@H](NC(=O)[C@H]1CCCN1C(=O)[C@@H](CCCNC(=N)N)NC(=O)[C@@H](CCCNC(=N)N)NC(=O)[C@@H](CCCNC(=N)N)NC(=O)[C@@H](CCCNC(=N)N)NC(=O)[C@@H](CCCNC(=N)N)NC(=O)[C@@H](CCCNC(=N)N)NC(=O)[C@@H](CCCNC(=N)N)NC(=O)[C@@H](CCCNC(=N)N)NC(=O)[C@@H](CCCNC(=N)N)NC(=O)[C@H](N)CCCNC(=N)N)C(=O)N[C@H](CCCCN)C(=O)N[C@H](Cc1c[nH]c2ccccc12)C(=O)N[C@H](CCCNC(=N)N)C(=O)N[C@H](Cc1c[nH]c2ccccc12)C(=O)N[C@H](Cc1ccc(O)cc1)C(=O)N[C@H](CCCNC(=N)N)C(=O)N[C@H](CCCNC(=N)N)C(=O)O` [rrrrrrrrrrpikwrwyrr] (H-[dR][dR][dR][dR][dR][dR][dR][dR][dR][dR][dP][dI][dK][dW][dR][dW][dY][dR][dR]-OH; N-terminus and C-terminus assumed), the half-life in “Stability in human serum” (cells given in hr) was over 24 h. In addition, the EC50 in the data set with Detroit-562 is 5 µM; with OVCAR3, 4 µM. The fraction unbound in data set [4] is 0.06.

In the case of `CC[C@H](C)[C@H](NC(=O)[C@@H]1CCCN1C(=O)[C@H](CCCNC(=N)N)NC(=O)[C@H](CCCNC(=N)N)NC(=O)[C@H](CCCNC(=N)N)NC(=O)[C@H](CCCNC(=N)N)NC(=O)[C@H](CCCNC(=N)N)NC(=O)[C@H](CCCNC(=N)N)NC(=O)[C@H](CCCNC(=N)N)NC(=O)[C@H](CCCNC(=N)N)NC(=O)[C@H](CCCNC(=N)N)NC(=O)[C@@H](N)CCCNC(=N)N)C(=O)N[C@H](CCC(N)=O)C(=O)N[C@H](CCC(N)=O)C(=O)N[C@H](CCCNC(=N)N)C(=O)N[C@H](Cc1ccc(O)cc1)C(=O)N[C@H](Cc1ccc(O)cc1)C(=O)N[C@H](Cc1c[nH]c2ccccc12)C(=O)N[C@H](CCCNC(=N)N)C(=O)O` [RRRRRRRRRRPIqqryywr] (H-RRRRRRRRRRPI[dQ][dQ][dR][dY][dY][dW][dR]-OH; N-terminus and C-terminus assumed), the half-life in the data set “Stability in human serum” was found to be 10 h. Also, the EC50 with Detroit-562 amounted to 12 µM; in the data set with OVCAR3, 22 µM. The fraction unbound in data set [4] is 0.18.
